Results on 7 compounds are retold here after US20150306237A1, “HYALURONIC ACID-ANTIOXIDANT CONJUGATES AND THEIR USES” (priority 2012, published 2015).

Marks after values point to notes of the source that are not given here.

Data set [1] can be described thus: Antioxidant activity measurement (DPPH). Format: biochemical. The conditions noted are these: DPPH % after 60 minutes; for DPPH for moiety alone [%] ± SD, n = 3: free moiety, lower = more antioxidant. On the technique in general: DPPH is a stable violet radical that fades when it is reduced.
For data set [2] the following is noted: reference [22]; cited from earlier work.
Data set [3] in a line: Viscosity and pH of formulations after steam sterilization. Particulars: formulation after steam sterilization. Format: physicochemical. On the procedure:
The gel is steam sterilized 10 minutes at 121° C. with an entire cycle of 35 minutes. For the viscosity, gels are measured with the rheological program presented before.
The target characteristics are a viscosity after heat sterilization of around 1000 [mPas], neutrality and isotonicity to plasma (around 280 [mOsmol]) in common with state of the art commercial formulations such as Ostenil©.

In another data set the test system is New-Zealand rabbits. Put plainly: Intra-articular biocompatibility test in rabbit. Format: in vivo. On the procedure:
Twelve male New-Zealand rabbits are kept in individual cages 2 weeks after reception before injection. The day of injection, they are anesthetized with Ketamin©/Domitor©, their posterior articulations shaved and disinfected with Vetedine© soap and solution. 200 ul of the selected formulations are injected into the articulations. The rabbit is then revived with Atipam©. The formulations are randomized for rabbits as well as for articulations and injected blindly.
Twice a week, a clinical examination is performed comprising the following points. For the general state; vigilance (at distance from the cage: normal, diminished, sleepy, enhanced), movements (at distance from the cage: normal, diminished), limb ledge (at distance from the cage: yes, no), limp (at distance from the cage: yes, no), hair state: (smooth and shiny, dull, bristling, dirty zones, hairless zones), wound: (yes, no), abnormal secretion: (yes, no), mucosal color: (pink, blade, congested, cyanosed). For the injected joints; swelling (from 0 to 3, 3 being strongest swelling), flow at the injection site (0-3), heat (0-3), palpation pain (from 0 to 3), mobilization pain (0-3), redness (0-3), hematoma (0-3). An echography is also performed under anesthesia comprising the following […] (external lateral, internal lateral and proximal) according to a protocol published in the literature and provides information about the presence of liquid, osteophytes and any severe cartilage erosion. After one month observation, the rabbits are sacrificed with intra-muscular injection of Ketamin©/Domitor© and intra-cardiac Dolethal©. The articulations are dissected and photographed before and after china ink embodiment to assess the state of the rotula, condyl, tibia and trochlea cartilage by a visual analogue scale (VAS) expressed in percentage of the structure degraded and by osteophytis scoring (OS) giving the presence or absence of osteophytes (0: absent, 1: present).
The femoral and tibial parts are fixed in 10% formalin solution and decalcified with Kristenson solution from Chimie-Plus Laboratoire (Denice, France) during several weeks. Samples are cut in two parasagittal sections for medial femoral and tibial condyles (left and right) and then paraffin embedded and sectioned into 4 μm thick slices. Sections were stained with Safranin O-fast green for cartilage. Synovial membranes were fixed in 10% formalin solution, cut in two or three parallel sections, paraffin embedded and sectioned into 4 μm thick slices. Each paraffin block was sectioned in three slides [one stained with hematoxylin, eosin and saffron (HES), and two stained with hematoxylin and eosin (HE)]. Histological features were evaluated in a blinded fashion except for control rabbits. Histological lesions were evaluated and scored according the OARSI histopathology initiative; -recommendations for histological assessments of osteoarthritis in the rabbit (Osteoarthritis and cartilage 18 (2010) S53-S65). Microscopic scoring of cartilage alterations, two sections per condyle were evaluated allowing a semi-quantitative grading. Several parameters were evaluated: Safranin O-fast green staining, structure, chondrocytes density, cluster formation. For microscopic scoring of synovial alterations, three sections per synovial membrane were evaluated, allowing semi-quantitative grading. Several parameters were evaluated: synoviocytes proliferation, synoviocytes hypertrophy, granulocytic infiltration, lymphoplasmacytic infiltration, lymphoplasmacytic aggregates follicles, villous hyperplasia, proliferation of fibroblasts/fibrocytes, proliferation of blood vessels, cartilage/bone detritus presence and hemosiderosis.
The above mentioned formulations were tested in term of intra-articular biocompatibility in the rabbit model; Conjugated HA linked to 4AR (n=4), unconjugated HA mixed with 4AR (n=4), 4AR (n=4) and as controls; physiological serum (n=2), untreated (n=2) and Ostenil© (n=4).

A short description of data set [4]: Viscosity stability in an oxidative environment (Weissberger's oxidative system, CuCl2 + ascorbic acid). Particulars: gel 1 %.
Data set [5] can be described thus: Water solubility of the moieties. Format: physicochemical. Particulars: free moiety.
The mark [6] stands for this setting: HA conjugate (native HA), for 4AR first value, 14 % grafting.

For the compound `CCOC(=O)[C@@H](N)CS` [EECyst, ethylester cysteine], in data set [1] (setting [6]), the “DPPH [%] ± SD, n = 3” value was 41%. The “DPPH for moiety alone [%] ± SD, n = 3” value in data set [1] amounted to 6%.
For the compound `Nc1ccc(O)cc1O` [4AR, 4-aminoresorcinol], in data set [2], the “cytotoxicity (in words)” value is listed as “potent cytotoxic agent”. The pH in data set [3] is recorded as 7.25. For the same compound, in the data set on New-Zealand rabbits (0 absent, 1 present, one month), the “Tibia OS” value is listed as 0% and the “Trochlea OS” value worked out at 0%. Further, the “Rotula OS” value with New-Zealand rabbits (0 absent, 1 small osteophyte present, one month) came to 0%. In addition, the “Condyl OS, ext” value with New-Zealand rabbits (external, 0 absent, 1 present, one month) is recorded as 0/0%. Moreover, in the data set on New-Zealand rabbits (external, one month), the “Condyl VAS score, ext” value is listed as 0/0% and the “Tibia VAS score, ext” value is 0***/0*** %. Further, in the data set with New-Zealand rabbits (internal, 0 absent, 1 present, one month), the “Condyl OS, int” value is 0/0%. In the data set with New-Zealand rabbits (internal, one month), the “Condyl VAS score, int” value is on record as 0/0% and the “Tibia VAS score, int” value was 0***/0*** %. In the data set with New-Zealand rabbits (one month), the “Meniscus lesion (int/ext)” value was 0, the “Synvovial membrane Fibrosis” value is 0, the “Synvovial membrane Inflamation” value was found to be 0 and the “Trochlea VAS score” value is given as 0-10* %. Besides, the “Rotula VAS score” value in the data set with New-Zealand rabbits (percentage of structure degraded, one month after 200 ul intra-articular) amounted to 0%. Besides, the “intra-articular biocompatibility (in words)” value in the data set with New-Zealand rabbits (single injection, one month evaluation) was “no sign of non-biocompatibility”. In data set [1] (4AR conjugate with 57 % grafting (second value of the cell)), the “DPPH [%] ± SD, n = 3” value was found to be 37%. In data set [1] (setting [6]), the “DPPH [%] ± SD, n = 3” value was 71%. Further, the “DPPH for moiety alone [%] ± SD, n = 3” value in data set [1] is listed as 28%. The gain of viscosity in data set [4] (during the 36 minutes of measurement, Weissberger oxidative system, n=1) came to 40%.
Turning to `NCCc1ccc(O)cc1` [Tyr, tyramin], in data set [1] (setting [6]), the “DPPH [%] ± SD, n = 3” value is recorded as 92%. In addition, the “DPPH for moiety alone [%] ± SD, n = 3” value in data set [1] was 85%. In data set [4] (CuCl2 + ascorbic acid), the “viscosity behaviour / degradation in oxidative environment (in words)” value was “more degraded than HA itself”.
As for `Cc1cc(=O)oc2cc(N)ccc12` [AMC], in data set [5], the “water solubility (in words)” value is on record as “solubility is low”. Also, the “DPPH [%] ± SD, n = 3” value in data set [1] (setting [6]) was found to be 61%. Further, the “DPPH for moiety alone [%] ± SD, n = 3” value in data set [1] is listed as 87%.
Regarding `Nc1ccc(O)c(C(=O)O)c1` [5ASA, 5-aminosalicylic acid], the “DPPH [%] ± SD, n = 3” value in data set [1] (setting [6]) is listed as 67%. Besides, the “DPPH for moiety alone [%] ± SD, n = 3” value in data set [1] worked out at 34%.
With `Nc1ccc(C(=O)O)c(O)c1` [4ASA, 4-aminosalicylic acid], the “water solubility (in words)” value in data set [5] is recorded as “low water solubility”. For the same compound, the “DPPH [%] ± SD, n = 3” value in data set [1] (setting [6]) is recorded as 96%. Further, the “DPPH for moiety alone [%] ± SD, n = 3” value in data set [1] is given as 27%.
On to `Nc1ccccc1` [Aniline, aniline], for which the “water solubility (in words)” value in data set [5] is “high water solubility”. The “DPPH [%] ± SD, n = 3” value in data set [1] (setting [6]) turned out to be 95%. Moreover, the “DPPH for moiety alone [%] ± SD, n = 3” value in data set [1] is recorded as 36%.
